Reference: patent EP4725957A1, “GROUP OF CYCLIC ALKALINE LIPOPEPTIDE COMPOUNDS, AND PREPARATION METHOD THEREFOR AND USE THEREOF” (Institute of Medicinal Biotechnology, Chinese Academy of …, priority 2023, dated 2024)
Values after ≈ are worked out from the molar mass of the structure shown. Like-named read-outs stand apart in the source and are kept apart here. Bridge positions count the residues as written; N and C are the ends. Square brackets hold non-standard residues; d marks the D form. Peptide text beside a SMILES is read from it. * marks the point of attachment. Dab(CH2SO3H) = N[C@@H](CCNCS(=O)(=O)O)C(=O)O; Heptanoyl(6-Me) = CC(C)CCCCC(=O)*; X1 = CC[C@H](C)CCCCC(=O)*; Heptanoyl = CCCCCCC(=O)*; Octanoyl = CCCCCCCC(=O)*; Orn = NCCC[C@H](N)C(=O)O; dDap = NC[C@@H](N)C(=O)O; Dab = NCC[C@H](N)C(=O)O; Dap = NC[C@H](N)C(=O)O

Assays:
Assay type in all cases: cell-based
[1] = Nephrotoxicity assay: in vitro cytotoxicity of HK-2 cells by CCK-8 assay; conditions: human, HK-2 cells (human renal), 72 h incubation with drug-containing medium
Summary of the method: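 HK-2 human renal cells in RPMI-1640 with 10% FBS were exposed to compounds at final 12.5–500 µg/mL for 72 h, then CCK-8 for 3 h and OD450 read. Viability was normalised to drug-free wells; IC50 came from logarithmic regression over three repeats, with polymyxin B as positive drug.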

[2] = test system: Escherichia coli ATCC BAA-2523
Summary of the method: (§1)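 Minimal inhibitory concentrations are measured following CLSI microdilution guidance in MH broth. Test concentrations run from 64 down to 0.03 mg/L in doubling steps, with a final bacterial load of (2-4) × 10^5 CFU/mL and 16-20 h incubation at 35-37°C.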

[3] = test system: Klebsiella pneumoniae KPN+19-15
Summary of the method: as §1

[4] = test system: Acinetobacter baumannii ABA19-1
Summary of the method: as §1

[5] = test system: Klebsiella pneumoniae ATCC BAA-1705 (KPC)
Summary of the method: as §1

[6] = test system: Pseudomonas aeruginosa ATCC 27853
Summary of the method: as §1

[7] = test system: Pseudomonas aeruginosa PAE19-3
Summary of the method: as §1

[8] = test system: Escherichia coli ATCC BAA-2340 (KPC)
Summary of the method: as §1

[9] = test system: Acinetobacter baumannii NCTC 13304 (OXA-27)
Summary of the method: as §1

For CC(C)CCCCC(=O)N[C@@H](CCN)C(=O)N[C@H](C(=O)N[C@@H](CN)C(=O)N[C@H]1CCNC(=O)[C@H]([C@@H](C)O)NC(=O)[C@H](CCNCS(=O)(=O)O)NC(=O)[C@H](CCN)NC(=O)[C@H]([C@@H](C)O)NC(=O)[C@@H](Cc2ccccc2)NC(=O)[C@H](CCN)NC1=O)[C@@H](C)O [Compound 120, 6-methylheptanoyl-Dab-Thr-Dap-ring(4-10)[Dab-Dab-D-Phe-Thr-Dab-Dab(CH2SO3H)-Thr]] ({Heptanoyl(6-Me)}-[Dab]T[Dap][Dab][Dab][dF]T[Dab][Dab(CH2SO3H)]T; lactam 4-C), the IC50 at 72 h [1] was > 500 µg/mL, the MIC ([2]; ATCC BAA-2523) was 0.06 µg/mL (≈ 0.0477 µM) and the MIC ([3]; KPN+19-15) was 0.125 µg/mL (≈ 0.0994 µM). For the same compound, the MIC ([4]; ABA19-1) was 0.25 µg/mL (≈ 0.199 µM), the MIC ([5]; ATCC BAA-1705) was 0.125 µg/mL (≈ 0.0994 µM) and the MIC ([6]; ATCC 27853) was 0.25 µg/mL (≈ 0.199 µM). The MIC ([7]; PAE19-3) was 0.5 µg/mL (≈ 0.398 µM), the MIC ([8]; ATCC BAA-2340) was 0.06 µg/mL (≈ 0.0477 µM) and the MIC ([9]; NCTC 13304) was 0.06 µg/mL (≈ 0.0477 µM).

For CC[C@H](C)CCCCC(=O)N[C@@H](CCN)C(=O)N[C@H](C(=O)N[C@@H](CCCN)C(=O)N[C@H]1CCNC(=O)[C@H]([C@@H](C)O)NC(=O)[C@H](CCN)NC(=O)[C@H](CCN)NC(=O)[C@H]([C@@H](C)O)NC(=O)[C@@H](Cc2ccccc2)NC(=O)[C@H](CCN)NC1=O)[C@@H](C)O [Compound 26, (S)-6-methyloctanoyl-Dab-Thr-Orn-ring(4-10)[Dab-Dab-D-Phe-Thr-Dab-Dab-Thr]] (X1-[Dab]T[Orn][Dab][Dab][dF]T[Dab][Dab]T; lactam 4-C), the IC50 at 72 h [1] was > 500 µg/mL, the MIC ([2]; ATCC BAA-2523) was ≤0.03 µg/mL and the MIC ([3]; KPN+19-15) was ≤0.03 µg/mL. For the same compound, the MIC ([4]; ABA19-1) was 0.125 µg/mL (≈ 0.104 µM), the MIC ([5]; ATCC BAA-1705) was ≤0.03 µg/mL and the MIC ([6]; ATCC 27853) was ≤0.03 µg/mL. For the same compound, the MIC ([7]; PAE19-3) was 0.25 µg/mL (≈ 0.207 µM), the MIC ([8]; ATCC BAA-2340) was ≤0.03 µg/mL and the MIC ([9]; NCTC 13304) was 0.06 µg/mL (≈ 0.0498 µM).

CC(C)CCCCC(=O)N[C@@H](CCN)C(=O)N[C@H](C(=O)N[C@H](CN)C(=O)N[C@H]1CCNC(=O)[C@H]([C@@H](C)O)NC(=O)[C@H](CCN)NC(=O)[C@H](CCN)NC(=O)[C@H](CC(C)C)NC(=O)[C@@H](Cc2ccccc2)NC(=O)[C@H](CCN)NC1=O)[C@@H](C)O [Compound 32, 6-methylheptanoyl-Dab-Thr-D-Dap-ring(4-10)[Dab-Dab-D-Phe-Leu-Dab-Dab-Thr]] ({Heptanoyl(6-Me)}-[Dab]T[dDap][Dab][Dab][dF]L[Dab][Dab]T; lactam 4-C) gave an IC50 at 72 h [1] of 325 ± 11.7 µg/mL (≈ 277 µM), an MIC ([2]; ATCC BAA-2523) of 0.03 µg/mL (≈ 0.0255 µM) and an MIC ([3]; KPN+19-15) of 0.03 µg/mL (≈ 0.0255 µM). For the same compound, the MIC ([4]; ABA19-1) was 0.03 µg/mL (≈ 0.0255 µM), the MIC ([5]; ATCC BAA-1705) was 0.03 µg/mL (≈ 0.0255 µM) and the MIC ([6]; ATCC 27853) was 0.03 µg/mL (≈ 0.0255 µM). It also gave an MIC ([7]; PAE19-3) of 0.25 µg/mL (≈ 0.213 µM), an MIC ([8]; ATCC BAA-2340) of 0.03 µg/mL (≈ 0.0255 µM) and an MIC ([9]; NCTC 13304) of 0.03 µg/mL (≈ 0.0255 µM).

For CCCCCCCC(=O)N[C@@H](CCN)C(=O)N[C@H](C(=O)N[C@H](CO)C(=O)N[C@H]1CCNC(=O)[C@H]([C@@H](C)O)NC(=O)[C@H](CCN)NC(=O)[C@H](CCN)NC(=O)[C@H]([C@@H](C)O)NC(=O)[C@@H](Cc2ccccc2)NC(=O)[C@H](CCCN)NC1=O)[C@@H](C)O [Compound 68, Octanoyl-Dab-Thr-D-Ser-ring(4-10)[Dab-Orn-D-Phe-Thr-Dab-Dab-Thr]] (Octanoyl-[Dab]T[dS][Dab][Orn][dF]T[Dab][Dab]T; lactam 4-C), the IC50 at 72 h [1] was > 500 µg/mL, the MIC ([2]; ATCC BAA-2523) was 0.25 µg/mL (≈ 0.212 µM) and the MIC ([3]; KPN+19-15) was 0.5 µg/mL (≈ 0.424 µM). It also gave an MIC ([4]; ABA19-1) of 0.25 µg/mL (≈ 0.212 µM), an MIC ([5]; ATCC BAA-1705) of 0.25 µg/mL (≈ 0.212 µM) and an MIC ([6]; ATCC 27853) of 64 µg/mL (≈ 54.3 µM). It also gave an MIC ([7]; PAE19-3) of 4 µg/mL (≈ 3.39 µM), an MIC ([8]; ATCC BAA-2340) of 0.25 µg/mL (≈ 0.212 µM) and an MIC ([9]; NCTC 13304) of 0.25 µg/mL (≈ 0.212 µM).

In the case of CC[C@H](C)CCCCC(=O)N[C@@H](CCN)C(=O)N[C@H](C(=O)N[C@H](CO)C(=O)N[C@H]1CCNC(=O)[C@H]([C@@H](C)O)NC(=O)[C@H](CCN)NC(=O)[C@H](CCN)NC(=O)[C@H]([C@@H](C)O)NC(=O)[C@@H](Cc2ccccc2)NC(=O)[C@H](CN)NC1=O)[C@@H](C)O [Compound 61, (S)-6-methyloctanoyl-Dab-Thr-D-Ser-ring(4-10)[Dab-Dap-D-Phe-Thr-Dab-Dab-Thr]] (X1-[Dab]T[dS][Dab][Dap][dF]T[Dab][Dab]T; lactam 4-C), the IC50 at 72 h [1] is reported as > 500 µg/mL, the MIC ([2]; Escherichia coli ATCC BAA-2523) is reported as 0.06 µg/mL (≈ 0.0515 µM) and the MIC ([3]; Klebsiella pneumoniae KPN 19-15) is reported as 0.5 µg/mL (≈ 0.429 µM). The MIC ([4]; Acinetobacter baumannii ABA19-1) was 0.25 µg/mL (≈ 0.215 µM), the MIC ([5]; Klebsiella pneumoniae ATCC BAA-1705 (KPC)) was 0.25 µg/mL (≈ 0.215 µM) and the MIC ([6]; Pseudomonas aeruginosa ATCC27853) was 64 µg/mL (≈ 55 µM). For the same compound, the MIC ([7]; Pseudomonas aeruginosa PAE19-3) was 4 µg/mL (≈ 3.44 µM), the MIC ([8]; Escherichia coli ATCC BAA-2340 (KPC)) was 0.06 µg/mL (≈ 0.0515 µM) and the MIC ([9]; Acinetobacter baumannii NCTC 13304 (OXA-27)) was 0.25 µg/mL (≈ 0.215 µM).

For CCCCCCC(=O)N[C@@H](CCN)C(=O)N[C@H](C(=O)N[C@@H](CCCN)C(=O)N[C@H]1CCNC(=O)[C@H]([C@@H](C)O)NC(=O)[C@H](CCN)NC(=O)[C@H](CCN)NC(=O)[C@H](CC(C)C)NC(=O)[C@@H](Cc2ccccc2)NC(=O)[C@H](CCN)NC1=O)[C@@H](C)O [Compound 49, Heptanoyl-Dab-Thr-Orn-ring(4-10)[Dab-Dab-D-Phe-Leu-Dab-Dab-Thr]] (Heptanoyl-[Dab]T[Orn][Dab][Dab][dF]L[Dab][Dab]T; lactam 4-C), the IC50 at 72 h [1] was 367 ± 8.7 µg/mL (≈ 309 µM), the MIC ([2]; ATCC BAA-2523) was 0.03 µg/mL (≈ 0.0252 µM) and the MIC ([3]; KPN+19-15) was 0.03 µg/mL (≈ 0.0252 µM). It also gave an MIC ([4]; ABA19-1) of 0.125 µg/mL (≈ 0.105 µM), an MIC ([5]; ATCC BAA-1705) of 0.03 µg/mL (≈ 0.0252 µM) and an MIC ([6]; ATCC 27853) of 0.03 µg/mL (≈ 0.0252 µM). For the same compound, the MIC ([7]; PAE19-3) was 0.5 µg/mL (≈ 0.42 µM), the MIC ([8]; ATCC BAA-2340) was 0.03 µg/mL (≈ 0.0252 µM) and the MIC ([9]; NCTC 13304) was 0.06 µg/mL (≈ 0.0504 µM).
